Values of other authors, collected in patent publication US20080214592A1, “METHODS OF TREATING ANXIETY DISORDERS” (Orexigen Therapeutics, Inc., priority 2005, published 2008).

physiological half life: about 24 hours
SMILES: CNCCC(Oc1ccc(C(F)(F)F)cc1)c1ccccc1 (stereo not shown) [Fluoxetine, fluoxetine]
